Source: patent publication US20260365663A1, “EMOPAMIL-BINDING PROTEIN INHIBITORS AND USES THEREOF” (BIOGEN MA INC., priority 2022, published 2026)
Read-outs that look alike come from different tables or passages of the source.

Target: T1, EBP (Homo sapiens, UniProt Q15125)
T1 construct: HEK293T cells were utilized as the source of EBP enzyme; endogenous in cells; host or cells: HEK293T
Test: EBP Functional Assay (EBP immunoaffinity LC-MS assay)
Assay type: biochemical
Experimental: The EBP immunoaffinity (IA) LC-MS assay measures the potency of small molecule inhibitors of EBP by quantifying their concentration-dependent changes in the enzyme's substrate and product using liquid chromatography atmospheric pressure chemical ionization multiple reaction monitoring mass spectrometry (LC-APCI MRM MS). HEK293T cells were utilized as the source of EBP enzyme. The enzyme was incubated with the small molecule inhibitors at variable concentrations for 30 min. Deuterated form of EBP substrate, zymosterol-d5 (Avanti Polar Lipids, Cat #700068P-1 mg), was then added and the plate was incubated at 37 °C for 4 h. Finally, the sterol isomers were extracted and injected to LC-APCI MRM MS. MRM transition used for the quantification for both zymosterol and dihydrolathosterol (substrate and product of EBP enzymatic reaction, respectively) is 372.3-203.2, CE 30 and DP 80 in positive ion mode. Percent conversion of the zymosterol-d5 to dehydrolathosterol-d5 was used to derive IC50 curves. Tasin-1 (1′-[(4-Methoxyphenyl)sulfonyl]-4-methyl-1,4′-bipiperidine, CAS 792927-06-1) was used as the reference small molecule inhibitor.
Percent conversion versus the compound concentration data were fit to the following 4-parameter logistic model to generate IC50 curves: […]

[1] = HEK293T cells as source of EBP enzyme, zymosterol-d5 substrate, inhibitor 30 min, then 37 °C for 4 h, percent conversion to dehydrolathosterol-d5 by LC-APCI MRM MS, read-out: EBP Functional Assay

T1 sequence (Q15125 whole entry): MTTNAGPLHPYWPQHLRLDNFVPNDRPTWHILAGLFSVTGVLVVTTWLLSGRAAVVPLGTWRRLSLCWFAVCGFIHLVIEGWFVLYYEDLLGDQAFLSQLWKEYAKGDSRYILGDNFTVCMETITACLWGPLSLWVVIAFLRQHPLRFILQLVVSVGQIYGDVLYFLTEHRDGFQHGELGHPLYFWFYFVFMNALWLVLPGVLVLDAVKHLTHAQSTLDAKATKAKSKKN

Row | SMILES | IC50 [1] [nM] | IC50 [nM]
1 | Cc1nc(C(C)(F)F)ccc1S(=O)(=O)N1CC2(CC(N(C)C3CCOCC3)C2)C1 [Example 72, 2-((6-(1,1-difluoroethyl)-2-methylpyridin-3-yl)sulfonyl)-N-methyl-N-(tetrahydro-2H-pyran-4-yl)-2-azaspiro[3.3]heptan-6-amine] | < 100 | 
2 | Cc1nc(C(C)(F)F)ccc1S(=O)(=O)N1CC2(CC(N(C)C3COC3)C2)C1 [Example 73, 2-((6-(1,1-difluoroethyl)-2-methylpyridin-3-yl)sulfonyl)-N-methyl-N-(oxetan-3-yl)-2-azaspiro[3.3]heptan-6-amine] | 100 to 500 | 
3 | Cc1nc(C(C)(F)F)ccc1S(=O)(=O)N1CC2(CC(N(C)C3CC4(COC4)C3)C2)C1 (stereo not drawn) [Example 74, 2-((6-(1,1-difluoroethyl)-2-methylpyridin-3-yl)sulfonyl)-N-methyl-N-(2-oxaspiro[3.3]heptan-6-yl)-2-azaspiro[3.3]heptan-6-amine] | < 100 | 
4 | Cc1nc(C(C)(F)F)ccc1S(=O)(=O)N1CC2(CC(N(C)CC3CCOCC3)C2)C1 [Example 75, 2-((6-(1,1-difluoroethyl)-2-methylpyridin-3-yl)sulfonyl)-N-methyl-N-((tetrahydro-2H-pyran-4-yl)methyl)-2-azaspiro[3.3]heptan-6-amine] | 100 to 500 | 
5 | Cc1nc(C(F)(F)F)ncc1S(=O)(=O)N1CC2(CC(NC3CCOCC3)C2)C1 [Example 76, 2-((4-methyl-2-(trifluoromethyl)pyrimidin-5-yl)sulfonyl)-N-(tetrahydro-2H-pyran-4-yl)-2-azaspiro[3.3]heptan-6-amine] | 100 to 500 | 
6 | Cc1nc(C(F)(F)F)ncc1S(=O)(=O)N1CC2(CC(NC3COC3)C2)C1 [Example 77, 2-((4-methyl-2-(trifluoromethyl)pyrimidin-5-yl)sulfonyl)-N-(oxetan-3-yl)-2-azaspiro[3.3]heptan-6-amine] | 500 to 3000 | 
7 | Cc1nc(C(F)(F)F)ncc1S(=O)(=O)N1CC2(CC(NC3CC4(COC4)C3)C2)C1 (stereo not drawn) [Example 78, 2-((4-methyl-2-(trifluoromethyl)pyrimidin-5-yl)sulfonyl)-N-(2-oxaspiro[3.3]heptan-6-yl)-2-azaspiro[3.3]heptan-6-amine] | 100 to 500 | 
8 | Cc1nc(C(F)(F)F)ncc1S(=O)(=O)N1CC2(CC(NCC3CCOCC3)C2)C1 [Example 79, 2-((4-methyl-2-(trifluoromethyl)pyrimidin-5-yl)sulfonyl)-N-((tetrahydro-2H-pyran-4-yl)methyl)-2-azaspiro[3.3]heptan-6-amine] | 100 to 500 | 
9 | Cc1nc(C(F)(F)F)ncc1S(=O)(=O)N1CC2(CC(N(C)C3CCOCC3)C2)C1 [Example 80, N-methyl-2-((4-methyl-2-(trifluoromethyl)pyrimidin-5-yl)sulfonyl)-N-(tetrahydro-2H-pyran-4-yl)-2-azaspiro[3.3]heptan-6-amine] |  | < 100
10 | Cc1nc(C(F)(F)F)ncc1S(=O)(=O)N1CC2(CC(N(C)C3COC3)C2)C1 [Example 81, N-methyl-2-((4-methyl-2-(trifluoromethyl)pyrimidin-5-yl)sulfonyl)-N-(oxetan-3-yl)-2-azaspiro[3.3]heptan-6-amine] | 100 to 500 | 
11 | Cc1nc(C(F)(F)F)ncc1S(=O)(=O)N1CC2(CC(N(C)C3CC4(COC4)C3)C2)C1 (stereo not drawn) [Example 82, N-methyl-2-((4-methyl-2-(trifluoromethyl)pyrimidin-5-yl)sulfonyl)-N-(2-oxaspiro[3.3]heptan-6-yl)-2-azaspiro[3.3]heptan-6-amine] | < 100 | 
12 | Cc1nc(C(F)(F)F)ncc1S(=O)(=O)N1CC2(CC(N(C)CC3CCOCC3)C2)C1 [Example 83, N-methyl-2-((4-methyl-2-(trifluoromethyl)pyrimidin-5-yl)sulfonyl)-N-((tetrahydro-2H-pyran-4-yl)methyl)-2-azaspiro[3.3]heptan-6-amine] | 100 to 500 | 
